Assay results published in US20140073634A1 (Institute For Applied Cancer Science/The University of …, priority 2012, published 2014).
Counter-ions that a name gives are not always drawn.

Test system: 293T-HRE-GFP-luc cells
Experiment: Cell-based reporter assay for IC50 determinations (HRE-luciferase, hypoxia)
Settings: 6 h, 6 hrs hypoxia (1% O2), luminescence
In short: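 293T-HRE-GFP-luc cells were pre-incubated with serially diluted compounds for 30 min under normoxia, then held 6 hrs in hypoxia (1% O2, 37° C). HRE-driven luciferase read by Steadylite Plus luminescence; IC50 from four-parameter logistic fit.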

Row | SMILES | IC50
1 | CS(=O)(=O)C1CCN(c2cc(Cn3nc(-c4nc(-c5ccc(OC(F)(F)F)cc5)no4)ccc3=O)ccn2)CC1 [Example 184, 2-{[2-(4-methanesulfonylpiperidin-1-yl)pyridin-4-yl]methyl}-6-{3-[4-(trifluoromethoxy)phenyl]-1,2,4-oxadiazol-5-yl}-2,3-dihydropyridazin-3-one] | < 100 nM
2 | CS(=O)(=O)N1CCN(c2cccc(Cn3cc(-c4nc(-c5ccc(OC(F)(F)F)cc5)no4)ccc3=O)c2)CC1 [Example 61] | < 100 nM
3 | Cc1ccc(-c2nnc(-c3ccc(OC(F)(F)F)cc3)o2)c(=O)n1Cc1ccnc(N2CCC(C#N)CC2)c1 [Example 28, 1-(4-((6-Methyl-2-oxo-3-(5-(4-(trifluoromethoxy)phenyl)-1,3,4-oxadiazol-2-yl)pyridin-1(2H)-yl)methyl)pyridin-2-yl)piperidine-4-carbonitrile] | 100 to 1000 nM
4 | CN(C)c1cccc(Cn2cc(-c3nc(-c4ccc(OC(F)(F)F)cc4)no3)ccc2=O)c1 [Example 145, 1-{[3-(dimethylamino)phenyl]methyl}-5-{3-[4-(trifluoromethoxy)phenyl]-1,2,4-oxadiazol-5-yl}-1,2-dihydropyridin-2-one] | < 100 nM
5 | CC(C)Oc1ccc(-c2nnc(-c3ccc(=O)n(Cc4cccc(N5CCC(S(C)(=O)=O)CC5)c4)c3)o2)cc1 [Example 264, 1-{[3-[4-methanesulfonylpiperidin-1-yl)phenyl]methyl}-5-{5-[4-(propan-2-yloxy)phenyl]-1,3,4-oxadiazol-2-yl}-1,2-dihydropyridin-2-one] | 100 to 1000 nM
6 | O=c1ccc(-c2nc(-c3ccc(OC(F)(F)F)cc3)no2)cn1Cc1ccc(F)c(N2CCC(O)CC2)c1 [Example 139, 1-{[4-fluoro-3-(4-hydroxypiperidin-1-yl)phenyl]methyl}-5-{3-[4-(trifluoromethoxy)phenyl]-1,2,4-oxadiazol-5-yl}-1,2-dihydropyridin-2-one] | < 100 nM
7 | O=c1ccc(-c2nc(-c3ccc(OC(F)(F)F)cc3)no2)cn1Cc1cccc(N2CCC(O)CC2)c1 [Example 58, 1-(3-(4-Hydroxypiperidin-1-yl)benzyl)-5-(3-(4-(trifluoromethoxy)phenyl)-1,2,4-oxadiazol-5-yl)pyridin-2(1H)-one] | < 100 nM
8 | C=Cc1cccc(Cn2cc(-c3nc(-c4ccc(OC(F)(F)F)cc4)no3)ccc2=O)c1 [Example 52, 5-(3-(4-(Trifluoromethoxy)phenyl)-1,2,4-oxadiazol-5-yl)-1-(3-vinylbenzyl)pyridin-2(1H)-one] | < 100 nM
9 | COCCOc1cccc(Cn2cc(-c3noc(-c4ccc5c(c4)OC(F)(F)O5)n3)ccc2=O)c1 [Example 224, 5-[5-(2,2-difluoro-2H-1,3-benzodioxol-5-yl)-1,2,4-oxadiazol-3-yl]-1-{[3-(2-methoxyethoxy)phenyl]methyl}-1,2-dihydropyridin-2-one] | < 100 nM
10 | COC(=O)Cc1cccc(Cn2nc(-c3nc(-c4ccc(OC(F)(F)F)cc4)no3)ccc2=O)c1 [Example 29, Methyl 2-{3-[(6-oxo-3-{3-[4-(trifluoromethoxy)phenyl]-1,2,4-oxadiazol-5-yl}-1,6-dihydropyridazin-1-yl)methyl]phenyl}acetate] | < 100 nM
11 | CN1CCN(c2cc(Cn3nc(-c4nc(-c5ccc(OC(F)(F)F)cc5)no4)ccc3=O)ccc2F)CC1 [Example 113, 2-(4-fluoro-3-(4-methylpiperazin-1-yl)benzyl)-6-(3-(4-(trifluoromethoxy)phenyl)-1,2,4-oxadiazol-5-yl)pyridazin-3(2H)-one] | < 100 nM
12 | CC(C)(CO)c1cccc(Cn2cc(-c3nc(-c4ccc(OC(F)(F)F)cc4)no3)ccc2=O)c1 [Example 38, 1-{[3-(1-Hydroxy-2-methylpropan-2-yl)phenyl]methyl}-5-{3-[4-(trifluoromethoxy)phenyl]-1,2,4-oxadiazol-5-yl}-1,2-dihydropyridin-2-one] | 100 to 1000 nM
13 | O=c1ccc(-c2nc(-c3ccc(OC(F)(F)F)cc3)no2)cn1Cc1cccc(Br)c1 [Example 141, 1-[(3-bromophenyl)methyl]-5-{3-[4-(trifluoromethoxy)phenyl]-1,2,4-oxadiazol-5-yl}-1,2-dihydropyridin-2-one] | 100 to 1000 nM
14 | Cc1ccc(C(=O)Nc2ccc(OC(F)(F)F)cc2)c(=O)n1Cc1cccc(N2CCN(C)CC2)c1 [Example 10, 1-Methyl-4-(3-((6-methyl-2-oxo-3-((4-(trifluoromethoxy)phenyl)carbamoyl)pyridin-1(2H)-yl)methyl)phenyl)piperazin-1-ium trifluoroacetate] | < 100 nM
15 | Cc1cnc(-c2nc(-c3ccc(C(C)(C)C)cc3)no2)nc1Cc1cccc(N2CCN(C)CC2)c1 [Example 89, 3-(4-(Tert-butyl)phenyl)-5-(5-methyl-4-(3-(4-methylpiperazin-1-yl)benzyl)pyrimidin-2-yl)-1,2,4-oxadiazole] | < 100 nM
16 | CC(C)(O)c1cccc(Cn2cc(-c3nnc(-c4ccc(OC(F)(F)F)cc4)o3)ccc2=O)c1 [Example 103] | < 100 nM

Row | SMILES | IC50
17 | COCCOc1cccc(Cn2cc(-c3noc(-c4ccc(OC(C)C)cc4)n3)ccc2=O)c1 [Example 196, 1-{[3-(2-methoxyethoxy)phenyl]methyl}-5-{5-[4-(propan-2-yloxy)phenyl]-1,2,4-oxadiazol-3-yl}-1,2-dihydropyridin-2-one] | 100 to 1000 nM
18 | CN1CCN(c2cccc(Cn3cc(-c4cc(-c5ccc(OC(F)(F)F)cc5)on4)ccc3=O)c2)CC1 [Example 96a, 1-(3-(4-Methylpiperazin-1-yl)benzyl)-5-(5-(4-(trifluoromethoxy)phenyl)isoxazol-3-yl)pyridin-2(1H)-one] | < 100 nM
19 | COCCOc1cccc(Cn2cc(-c3noc(-c4ccc(C(C)(C)C)cc4)n3)ccc2=O)c1 [Example 230, 5-[5-(4-tert-butylphenyl)-1,2,4-oxadiazol-3-yl]-1-{[3-(2-methoxyethoxy)phenyl]methyl}-1,2-dihydropyridin-2-one] | 100 to 1000 nM
20 | Cc1ccc(-c2nc(-c3ccc(OC(F)(F)F)cc3)no2)c(=O)n1Cc1cccc(N2CCN(C)CC2)c1 [Example 6, 1-Methyl-4-(3-((6-methyl-2-oxo-3-(3-(4-(trifluoromethoxy)phenyl)-1,2,4-oxadiazol-5-yl)pyridin-1(2H)-yl)methyl)phenyl)piperazin-1-ium trifluoroacetate] | < 100 nM
21 | COCCOc1cccc(Cn2cc(-c3noc(-c4ccc(C5CCOCC5)cc4)n3)ccc2=O)c1 [Example 74, 1-(3-(2-Methoxyethoxy)benzyl)-5-(5-(4-(tetrahydro-2H-pyran-4-yl)phenyl)-1,2,4-oxadiazol-3-yl)pyridin-2(1H)-one] | < 100 nM
22 | Cc1ccc(-c2nc(-c3ccc(OC(F)(F)F)cc3)no2)c(=O)n1Cc1cccc(C(=O)N(C)C)c1 [Example 128, N,N-dimethyl-3-((6-methyl-2-oxo-3-(3-(4-(trifluoromethoxy)phenyl)-1,2,4-oxadiazol-5-yl)pyridin-1(2H)-yl)methyl)benzamide] | 100 to 1000 nM
23 | Cc1ccc(-c2nc(-c3ccc(OC(F)(F)F)cc3)no2)c(=O)n1Cc1ccnc(N2CCCC2)c1 [Example 16, 4-((6-methyl-2-oxo-3-(3-(4-(trifluoromethoxy)phenyl)-1,2,4-oxadiazol-5-yl)pyridin-1(2H)-yl)methyl)-2-(pyrrolidin-1-yl)pyridin-1-ium trifluoroacetate] | < 100 nM
24 | CNC(=O)c1cccc(Cn2c(C)ccc(-c3nc(-c4ccc(OC(F)(F)F)cc4)no3)c2=O)c1 [Example 23, N-Methyl-3-((6-methyl-2-oxo-3-(3-(4-(trifluoromethoxy)phenyl)-1,2,4-oxadiazol-5-yl)pyridin-1(2H)-yl)methyl)benzamide] | 100 to 1000 nM
25 | O=c1ccc(-c2nc(-c3ccc(OC(F)(F)F)cc3)no2)cn1Cc1cccc(CCCO)c1 [Example 48, 1-{[3-(3-Hydroxypropyl)phenyl]methyl}-5-{3-[4-(trifluoromethoxy)phenyl]-1,2,4-oxadiazol-5-yl}-1,2-dihydropyridin-2-one] | < 100 nM
26 | O=c1ccc(-c2nc(-c3ccc(OC(F)(F)F)cc3)no2)cn1Cc1cccc(CBr)c1 [Example 171, 1-{[3-(bromomethyl)phenyl]methyl}-5-{3-[4-(trifluoromethoxy)phenyl]-1,2,4-oxadiazol-5-yl}-1,2-dihydropyridin-2-one] | < 100 nM
27 | O=c1ccc(-c2nc(-c3ccc(OC(F)(F)F)cc3)no2)cn1Cc1cccc(N2CCCS2(=O)=O)c1 [Example 168, 1-(3-(1,1-dioxidoisothiazolidin-2-yl)benzyl)-5-(3-(4-(trifluoromethoxy)phenyl)-1,2,4-oxadiazol-5-yl)pyridin-2(1H)-one] | < 100 nM
28 | COCCOc1cccc(Cn2cc(-c3noc(-c4ccc(C(C)C)cc4)n3)ccc2=O)c1 [Example 195, 1-{[3-(2-methoxyethoxy)phenyl]methyl}-5-{5-[4-(propan-2-yl)phenyl]-1,2,4-oxadiazol-3-yl}-1,2-dihydropyridin-2-one] | < 100 nM
29 | COCCOc1cccc(Cn2cc(-c3noc(-c4ccc(CO)cc4)n3)ccc2=O)c1 [Example 220, 5-{5-[4-(hydroxymethyl)phenyl]-1,2,4-oxadiazol-3-yl}-1-{[3-(2-methoxyethoxy)phenyl]methyl}-1,2-dihydropyridin-2-one] | 100 to 1000 nM
30 | COCCOc1cccc(Cn2cc(-c3noc(-c4ccc(N5CCOCC5)cc4)n3)ccc2=O)c1 [Example 200, 1-{[3-(2-methoxyethoxy)phenyl]methyl}-5-{5-[4-(morpholin-4-yl)phenyl]-1,2,4-oxadiazol-3-yl}-1,2-dihydropyridin-2-one] | < 100 nM
31 | COCCOc1cccc(Cn2cc(-c3nc(-c4ccc(C5(O)CCCCC5)cc4)no3)ccc2=O)c1 [Example 80, 5-(3-(4-(1-Hydroxycyclohexyl)phenyl)-1,2,4-oxadiazol-5-yl)-1-(3-(2-methoxyethoxy)benzyl)pyridin-2(1H)-one] | < 100 nM
32 | CN1CCN(C(=O)c2cccc(Cn3nc(-c4nc(-c5ccc(OC(F)(F)F)cc5)no4)ccc3=O)c2)CC1 [Example 112, 2-(3-(4-methylpiperazine-1-carbonyl)benzyl)-6-(3-(4-(trifluoromethoxy)phenyl)-1,2,4-oxadiazol-5-yl)pyridazin-3(2H)-one] | 100 to 1000 nM
